Experimental findings from patent US8063098B2, “GlyT1 receptor antagonists” (Hoffmann-La Roche Inc., priority 2008, dated 2011) are described below.

Each structure is given as a SMILES string.

The target of this assay is T1, mGlyT-1b (Mus musculus, UniProt P28571).
T1 construct: host or cells: Flp-in-CHO
T1 sequence (P28571 1-651 isoform P28571-2): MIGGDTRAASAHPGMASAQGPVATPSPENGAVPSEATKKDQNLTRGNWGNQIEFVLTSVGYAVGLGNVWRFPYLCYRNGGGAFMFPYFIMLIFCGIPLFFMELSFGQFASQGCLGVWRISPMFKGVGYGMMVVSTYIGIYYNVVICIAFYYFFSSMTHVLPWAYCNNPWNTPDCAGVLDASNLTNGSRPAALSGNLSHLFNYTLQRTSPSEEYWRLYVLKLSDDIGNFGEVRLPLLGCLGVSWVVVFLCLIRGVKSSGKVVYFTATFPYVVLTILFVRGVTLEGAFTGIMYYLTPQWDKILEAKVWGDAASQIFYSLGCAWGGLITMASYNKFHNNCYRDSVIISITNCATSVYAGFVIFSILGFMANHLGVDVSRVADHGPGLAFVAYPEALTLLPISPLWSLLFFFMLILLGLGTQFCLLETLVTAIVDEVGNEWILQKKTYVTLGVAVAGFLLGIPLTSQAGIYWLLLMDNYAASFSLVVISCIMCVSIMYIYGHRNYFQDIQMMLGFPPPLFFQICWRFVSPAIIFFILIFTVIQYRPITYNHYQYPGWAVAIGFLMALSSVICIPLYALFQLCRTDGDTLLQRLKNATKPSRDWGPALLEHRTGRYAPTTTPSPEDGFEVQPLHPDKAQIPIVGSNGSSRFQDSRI
The assay is described as follows: Glycine uptake inhibition assay (mGlyT-1b), [3H]-glycine uptake in Flp-in-CHO cells. The settings on record: Flp-in-CHO cells stably transfected with mGlyT1b cDNA, 20 min at 22° C. preincubation. Format: cell-based. Here is the method:
Nutrient mixture F-12 (Gibco Life-technologies), fetal bovine serum (FBS) 5%, (Gibco life technologies), Penicillin/Streptomycin 1% (Gibco life technologies), Hygromycin 0.6 mg/ml (Gibco life technologies), Glutamine 1 mM Gibco life technologies) • Uptake buffer (UB): 150 mM NaCl, 10 mM Hepes-Tris, pH 7.4, […], 2.5 mM KCl, 2.5 mM MgSO4, 10 mM (+) D-glucose. • Flp-in™-CHO (Invitrogen Cat n° R758-07) cells stably transfected with mGlyT1b cDNA. Glycine Uptake Inhibition Assay (mGlyT-1b)
On day 1 mammalian cells, (Flp-in™-CHO), transfected with mGlyT-1b cDNA, were plated at the density of 40,000 cells/well in complete F-12 medium, without hygromycin in 96-well culture plates. On day 2, the medium was aspirated and the cells were washed twice with uptake buffer (UB). The cells were then incubated for 20 min at 22° C. with either (i) no potential competitor, (ii) 10 mM non-radioactive glycine, (iii) a concentration of a potential inhibitor. A range of concentrations of the potential inhibitor was used to generate data for calculating the concentration of inhibitor resulting in 50% of the effect (e.g. IC50, the concentration of the competitor inhibiting glycine uptake of 50%). A solution was then immediately added containing [^3H]-glycine 60 nM (11-16 Ci/mmol) and 25 μM non-radioactive glycine. The plates were incubated with gentle shaking and the reaction was stopped by aspiration of the mixture and washing (three times) with ice-cold UB. The cells were lysed with scintillation liquid, shaken 3 hours and the radioactivity in the cells was counted using a scintillation counter.
Turning to `CSc1cc(C(F)(F)F)ccc1C(=O)NC(c1ccccc1)C1(N2CCCCC2)CCC1` (centres unmarked) [Example 48, 2-Methylsulfanyl-N-[phenyl-(1-piperidin-1-yl-cyclobutyl)-methyl]-4-trifluoromethyl-benzamide], half-maximal inhibition (IC50) was put at 0.0275 µM. With `COc1cc(C(F)(F)F)cc(SC)c1C(=O)NC(c1ccccc1)C1(N2CCCCC2)CCC1` (centres unmarked) [Example 49, 2-Methoxy-6-methylsulfanyl-N-[phenyl-(1-piperidin-1-yl-cyclobutyl)-methyl]-4-trifluoromethyl-benzamide], 0.0237 µM corresponded to half-maximal inhibition (IC50). For the compound `CSc1cc(C(F)(F)F)ccc1C(=O)NC(c1ccccc1)C1(N(C)C)CCC1` (centres unmarked) [Example 50, N-[(1-Dimethylamino-cyclobutyl)-phenyl-methyl]-2-methylsulfanyl-4-trifluoromethyl-benzamide], inhibition was half-maximal at 0.01 µM (IC50).

Regarding `COc1cc(C(F)(F)F)cc(SC)c1C(=O)NC(c1ccccc1)C1(N(C)C)CCC1` (centres unmarked) [Example 51, N-[(1-Dimethylamino-cyclobutyl)-phenyl-methyl]-2-methoxy-6-methylsulfanyl-4-trifluoromethyl-benzamide], inhibition was half-maximal at 0.0142 µM (IC50). The result for `O=C(NC(c1ccccc1)C1(N2CCCC2)CCC1)c1ccc(C(F)(F)F)cc1Br` (centres unmarked) [Example 52, 2-Bromo-N-[phenyl-(1-pyrrolidin-1-yl-cyclobutyl)-methyl]-4-trifluoromethyl-benzamide] reads 0.0127 µM. The result for `COc1cc(C(F)(F)F)cc(SC)c1C(=O)NC(c1cc(F)cc(F)c1)C1(N2CCCC2)CCC1` (centres unmarked) [Example 53] reads 0.0141 µM.

For the compound `O=C(NC(c1ccccc1)C1(N2CCCC2)CCC1)c1ccc(Cl)cc1C(F)(F)F` (centres unmarked) [Example 54], the IC50 – broadly, the concentration at which inhibition is half-maximal – was 0.0275 µM.

Compound `CSc1cc(C(F)(F)F)ccc1C(=O)NC(c1cccc(F)c1)C1(N2CCCC2)CCC1` (centres unmarked) [Example 55, N-[(3-Fluoro-phenyl)-(1-pyrrolidin-1-yl-cyclobutyl)-methyl]-2-methylsulfanyl-4-trifluoromethyl-benzamide] yielded an IC50 of 0.0139 µM. The result for `COc1cc(C(F)(F)F)cc(SC)c1C(=O)NC(c1cccc(F)c1)C1(N2CCCC2)CCC1` (centres unmarked) [Example 56, N-[(3-Fluoro-phenyl)-(1-pyrrolidin-1-yl-cyclobutyl)-methyl]-2-methoxy-6-methylsulfanyl-4-trifluoromethyl-benzamide] reads 0.0135 µM; that for `Cc1cc(F)ccc1C(=O)NC(c1ccccc1)C1(N2CCCC2)CCC1` (centres unmarked) [Example 57, 4-Fluoro-2-methyl-N-[phenyl-(1-pyrrolidin-1-yl-cyclobutyl)-methyl]-benzamide], 0.0596 µM. The result for `COc1cc(C(F)(F)F)cc(SC)c1C(=O)NC(c1ccccc1)C1(N2CCOCC2)CCC1` (centres unmarked) [Example 60, 2-Methoxy-6-methylsulfanyl-N-[(1-morpholin-4-yl-cyclobutyl)-phenyl-methyl]-4-trifluoromethyl-benzamide] reads 0.0496 µM; that for `Cc1cc(Cl)ccc1C(=O)NC(c1ccccc1)C1(N2CCCC2)CCC1` (centres unmarked) [Example 63, 4-Chloro-2-methyl-N-[phenyl-(1-pyrrolidin-1-yl-cyclobutyl)-methyl]-benzamide], 0.0297 µM. The result for `COc1cc(C(F)(F)F)cc(SC)c1C(=O)NC(c1ccccc1)C1(N2CCSCC2)CCC1` (centres unmarked) [Example 66, 2-Methoxy-6-methylsulfanyl-N-[phenyl-(1-thiomorpholin-4-yl-cyclobutyl)-methyl]-4-trifluoromethyl-benzamide] reads 0.0915 µM.

In turn, `O=C(NC(c1ccccc1)C1(N2CCCC2)CCC1)c1ccc(C(F)(F)F)cc1-c1ccccc1` (centres unmarked) [Example 67, 5-Trifluoromethyl-biphenyl-2-carboxylic acid [phenyl-(1-pyrrolidin-1-yl-cyclobutyl)-methyl]-amide] returned an IC50 of 0.0562 µM. Next, `CCc1cc(C(F)(F)F)ccc1C(=O)NC(c1ccccc1)C1(N2CCCC2)CCC1` (centres unmarked) [Example 68, 2-Ethyl-N-[phenyl-(1-pyrrolidin-1-yl-cyclobutyl)-methyl]-4-trifluoromethyl-benzamide]: 0.0091 µM; `CSc1cc(C(F)(F)F)cc(O)c1C(=O)NC(c1ccccc1)C1(N2CCCC2)CCC1` (centres unmarked) [Example 69, 2-Hydroxy-6-methylsulfanyl-N-[phenyl-(1-pyrrolidin-1-yl-cyclobutyl)-methyl]-4-trifluoromethyl-benzamide]: 0.0095 µM; `CSc1cc(C(F)(F)F)ccc1C(=O)NC(c1ccccc1)C1(N2CCN(C3CC3)CC2)CCC1` (centres unmarked) [Example 72, N-{[1-(4-Cyclopropyl-piperazin-1-yl)-cyclobutyl]-phenyl-methyl}-2-methylsulfanyl-4-trifluoromethyl-benzamide]: 0.0494 µM. Next, `COc1cc(C(F)(F)F)cc(SC)c1C(=O)NC(c1ccccc1)C1(N2CCN(C3CC3)CC2)CCC1` (centres unmarked) [Example 73, N-{[1-(4-Cyclopropyl-piperazin-1-yl)-cyclobutyl]-phenyl-methyl}-2-methoxy-6-methylsulfanyl-4-trifluoromethyl-benzamide]: 0.0308 µM; `CSc1cc(C(F)(F)F)ccc1C(=O)NC(c1ccccc1)C1(N2CC3(COC3)C2)CCC1` (centres unmarked) [Example 74, 2-Methylsulfanyl-N-{[1-(2-oxa-6-aza-spiro[3.3]hept-6-yl)-cyclobutyl]-phenyl-methyl}-4-trifluoromethyl-benzamide]: 0.0101 µM.

For the compound `COc1cc(C(F)(F)F)cc(SC)c1C(=O)NC(c1ccccc1)C1(N2CC3(COC3)C2)CCC1` (centres unmarked) [Example 75, 2-Methoxy-6-methylsulfanyl-N-{[1-(2-oxa-6-aza-spiro[3.3]hept-6-yl)-cyclobutyl]-phenyl-methyl}-4-trifluoromethyl-benzamide], the midpoint of inhibition, the IC50, lay at 0.0261 µM.
